Experimental data: patent publication US8465985B2, “Fluorescent probe” (The University of Tokyo, priority 2007, dated 2013)

Assay: Spectral change of Compound 5 in association with pH change (absorption and fluorescence spectra)
Format: physicochemical
Procedure: For all the samples, measurements were performed in a 1:1 mixed solvent of 100 mM sodium phosphate buffered solution and acetonitrile (containing 0.1% or less of DMSO as an auxiliary solvent).
In the case of Compound 5, for example, the tricarbocyanine fluorophore is a pH-sensitive FRET receptor, the dicarbocyanine fluorophore is an FRET donor, and the compound has a property that when the nitrogen atom binding to the methine chain of the tricarbocyanine fluorophore is protonated, the peak in the excitation spectrum shifts from around 660 nm to the longer wavelength side in connection with decrease of electron donating ability. […] Namely, by dissolving Compound 5 in a test sample, performing excitation with a light of 640 nm, and measuring ratio of fluorescence intensities at 660 nm and 750 nm upon excitation, it becomes possible to detect pH by the ratio method. Compound 5 is especially useful as a pH fluorescent probe for measuring pH in live cells or live tissues, in particular, in deep part tissues, under a physiological condition.
In a 1:1 mixed solution of 100 mmol/L phosphate buffer (pH 1.2, 2.1, 3.3, 3.9, 5.0, 6.0, 6.8) and acetonitrile (containing 0.1% or less of DMSO as an auxiliary solvent), absorption spectra and fluorescence spectra (excitation wavelength: 640 nm) of Compound 5 were measured. It can be understood that with elevation of pH, the absorbance around 650 nm increased, and the absorption spectrum changed. Moreover, it can also be understood that in the fluorescence spectrum, with elevation of pH, the fluorescence intensity decreased around 660 nm, and increased around 750 nm. Therefore, pH change can be accurately measured by using the ratio method based on one-wavelength excitation/ two-wavelength fluorescence measurement. […] The fluorescence intensities at 660 nm and 750 nm linearly change from pH 4 to 6, and accordingly, pH of this range can be measured by using Compound 5.

[1] = excitation 640 nm, 1:1 phosphate buffer (pH 1.2-6.8) and acetonitrile

CN1/C(=C/C=C2\CCCC(/C=C/C3=[N+](C)c4ccccc4C3(C)C)=C2NCCCCCC(=O)N[C@H]2CC[C@H](NC(=O)CC[N+]3=C(/C=C/C=C/C=C4/N(CCC(=O)O)c5ccccc5C4(C)C)C(C)(C)c4ccccc43)CC2)C(C)(C)c2ccccc21 [Compound 5]
change of absorbance around 650 nm with elevation of pH (1:1 100 mmol/L phosphate buffer (pH 1.2-6.8) and acetonitrile): increased
change of fluorescence intensity around 660 nm with elevation of pH [1]: decreased
change of fluorescence intensity around 750 nm with elevation of pH [1]: increased
fluorescence wavelength of the tricarbocyanine fluorophore (FRET receptor) (excitation light of 640 nm, nitrogen atom not protonated): around 750 nm
fluorescence wavelength peak of the dicarbocyanine fluorophore (FRET donor) (excitation light of 640 nm, nitrogen atom protonated): around 660 nm
